Results published in ChEMBL document CHEMBL1137962, “New heteroarylbenzenesulphonamides as matrix metalloproteinase inhibitors” (Bioorg Med Chem Lett, 2004).

Experiments:
[1] = target: Matrix metalloproteinase-9 (Homo sapiens, UniProt P14780); experiment: Inhibition of matrix metalloprotease-9
[2] = target: 72 kDa type IV collagenase (Homo sapiens, UniProt P08253); experiment: Inhibition of matrix metalloprotease-2
Sequence of 72 kDa type IV collagenase (P08253 whole entry): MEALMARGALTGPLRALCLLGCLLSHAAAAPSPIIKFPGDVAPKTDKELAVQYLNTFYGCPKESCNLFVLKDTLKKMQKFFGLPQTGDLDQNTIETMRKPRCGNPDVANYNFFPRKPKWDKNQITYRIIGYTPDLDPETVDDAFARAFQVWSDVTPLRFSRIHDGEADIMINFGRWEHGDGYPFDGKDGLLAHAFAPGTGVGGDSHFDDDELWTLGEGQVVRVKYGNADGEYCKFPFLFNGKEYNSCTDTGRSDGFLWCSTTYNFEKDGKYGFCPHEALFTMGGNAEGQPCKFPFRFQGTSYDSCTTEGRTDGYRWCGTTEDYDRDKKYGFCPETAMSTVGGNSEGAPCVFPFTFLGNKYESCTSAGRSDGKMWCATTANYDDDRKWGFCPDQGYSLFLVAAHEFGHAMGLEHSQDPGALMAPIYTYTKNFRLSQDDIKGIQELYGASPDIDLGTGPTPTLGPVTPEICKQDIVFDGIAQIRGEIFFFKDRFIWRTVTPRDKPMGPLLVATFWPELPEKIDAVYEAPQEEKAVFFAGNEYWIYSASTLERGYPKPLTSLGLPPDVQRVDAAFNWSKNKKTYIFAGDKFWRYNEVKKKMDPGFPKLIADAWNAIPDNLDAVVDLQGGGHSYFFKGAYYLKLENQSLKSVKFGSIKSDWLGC

Sequence of Matrix metalloproteinase-9 (P14780 whole entry): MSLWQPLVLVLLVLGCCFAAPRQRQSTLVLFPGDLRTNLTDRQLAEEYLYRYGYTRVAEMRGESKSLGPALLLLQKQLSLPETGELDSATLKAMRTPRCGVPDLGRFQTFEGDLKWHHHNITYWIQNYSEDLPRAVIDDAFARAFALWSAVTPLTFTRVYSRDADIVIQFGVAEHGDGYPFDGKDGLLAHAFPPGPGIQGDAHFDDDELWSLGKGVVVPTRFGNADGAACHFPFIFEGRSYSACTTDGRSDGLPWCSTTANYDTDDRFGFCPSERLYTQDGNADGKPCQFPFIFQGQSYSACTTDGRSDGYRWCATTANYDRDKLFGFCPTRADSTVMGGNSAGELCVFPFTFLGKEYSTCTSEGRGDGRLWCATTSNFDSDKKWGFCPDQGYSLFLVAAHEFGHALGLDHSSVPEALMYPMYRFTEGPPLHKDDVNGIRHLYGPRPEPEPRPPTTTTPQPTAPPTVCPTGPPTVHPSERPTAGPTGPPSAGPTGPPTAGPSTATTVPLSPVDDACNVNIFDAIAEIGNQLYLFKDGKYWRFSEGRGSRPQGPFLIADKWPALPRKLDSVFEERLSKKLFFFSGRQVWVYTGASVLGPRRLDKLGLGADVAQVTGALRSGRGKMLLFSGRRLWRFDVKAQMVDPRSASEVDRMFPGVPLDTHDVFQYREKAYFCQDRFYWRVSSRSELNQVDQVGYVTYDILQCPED

IC50 [1] | IC50 [2] | SMILES
900 nM | 400 nM | COc1ccc(-c2cnc(-c3ccc(S(=O)(=O)NC(C(=O)NO)C(C)C)cc3)s2)cc1 (centres undefined)
700 nM | 200 nM | COc1ccc(-c2cnc(-c3ccc(S(=O)(=O)NC(C(=O)O)C(C)C)cc3)s2)cc1 (centres undefined)
1000 nM | 1000 nM | COc1ccc(-c2cnc(-c3ccc(S(=O)(=O)NC(C(=O)O)C(C)C)cc3)o2)cc1 (centres undefined)

The next lines start with the compound.

SMILES | IC50 [1] | IC50 [2]
COc1ccc(-c2cnc(-c3ccc(S(=O)(=O)NC(C(=O)NO)C(C)C)cc3)o2)cc1 (centres undefined) | 1000 nM | 1000 nM
CNC(=O)[C@@H](CC(=O)[C@H](CC(C)C)[C@H](CSc1ccccc1)C(=O)NO)Cc1ccccc1 | 200 nM | 200 nM
COc1ccc(-c2cnc(-c3ccc(S(=O)(=O)NC(C(=O)CCC(=O)O)C(C)C)cc3)o2)cc1 (centres undefined) | 10000 nM | 10000 nM
COc1ccc(-c2cnc(-c3ccc(S(=O)(=O)NC(CCC(=O)O)C(=O)O)cc3)s2)cc1 (centres undefined) | 50 nM | 50 nM
